These results are taken from patent US11142525B2 (Pfizer Inc., priority 2018, dated 2021).

Assay [1] addresses human full-length recombinant HPK1 (Homo sapiens (Human), UniProt Q92918). Nature of the assay: HPK1 biochemical enzyme assay, microfluidic mobility shift assay (MSA). Conditions: read-out: HPK1 Enzyme Assay_Ki.
Assay [2] deals with phospho-SLP-76 (Ser376) in Jurkat cells. Kind of assay: Phospho-SLP-76 (Ser376) Homogeneous Time Resolved Fluorescence (HTRF) assay in Jurkat cells. The class given is cell-based. Conditions: Homo sapiens, read-out: SLP76 Assay_IC50. Summed up: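 Phospho-SLP-76 in lysates was read by sandwich HTRF and IC50 derived by four-parameter nonlinear regression. Before lysis, cells had received compound for 30 min (11-point, 3-fold series from 10 μM, 0.1% DMSO), followed by anti-CD3 F(ab)2 complex (200 μg/mL, 15 min, 37 °C).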

[3] abbreviates: Phospho-SLP-76 (Ser376) HTRF, anti-CD3 stimulation.

Read-outs that look alike come from different tables or passages of the source. Some results are limits rather than exact numbers.

human full-length recombinant HPK1, sequence (Q92918 whole entry): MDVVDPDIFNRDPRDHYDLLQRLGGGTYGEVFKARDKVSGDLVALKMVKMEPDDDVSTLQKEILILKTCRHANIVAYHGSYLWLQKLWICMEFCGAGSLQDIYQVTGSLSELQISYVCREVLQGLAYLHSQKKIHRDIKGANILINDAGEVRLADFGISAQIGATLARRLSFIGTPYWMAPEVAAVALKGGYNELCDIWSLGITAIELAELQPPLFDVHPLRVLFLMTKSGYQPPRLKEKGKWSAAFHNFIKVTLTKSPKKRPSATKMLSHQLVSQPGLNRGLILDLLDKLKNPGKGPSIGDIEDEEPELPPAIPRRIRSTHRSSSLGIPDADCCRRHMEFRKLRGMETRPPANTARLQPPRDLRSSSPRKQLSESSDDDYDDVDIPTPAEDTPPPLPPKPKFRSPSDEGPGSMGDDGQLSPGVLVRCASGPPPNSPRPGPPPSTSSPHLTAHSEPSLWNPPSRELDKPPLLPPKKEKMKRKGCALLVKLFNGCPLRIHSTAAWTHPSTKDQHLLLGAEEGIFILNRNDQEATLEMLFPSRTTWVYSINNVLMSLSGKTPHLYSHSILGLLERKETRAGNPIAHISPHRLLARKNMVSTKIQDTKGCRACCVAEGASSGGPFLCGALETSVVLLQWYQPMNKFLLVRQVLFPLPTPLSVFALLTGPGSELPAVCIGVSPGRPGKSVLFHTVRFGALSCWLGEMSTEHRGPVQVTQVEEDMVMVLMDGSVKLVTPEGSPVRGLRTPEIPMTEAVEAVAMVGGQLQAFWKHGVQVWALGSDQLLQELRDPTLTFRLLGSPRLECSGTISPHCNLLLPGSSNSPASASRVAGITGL

With `C[C@@H]1CCCN1c1cc2c(c(CN)n1)CN(c1cccc(N3C(=O)OC[C@@H]3CF)n1)C2=O` [Example 68, 4-(aminomethyl)-2-{6-[(4R)-4-(fluoromethyl)-2-oxo-1,3-oxazolidin-3-yl]pyridin-2-yl}-6-[(2R)-2-methylpyrrolidin-1-yl]-2,3-dihydro-1H-pyrrolo[3,4-c]pyridin-1-one], in assay [1] (mobility shift assay, 75 μM ATP, Morrison equation, tight-binding competitive inhibition), the Ki was under 0.07 nM. In assay [2] (30 min pre-treatment, anti-CD3 stimulation 15 min, HTRF), the IC50 was 50 nM.

Consider `CNCc1nc(C2CCC2)cc2c1CN(c1cccc(-c3nncn3C(C)C)n1)C2=O` [Example 69, 6-cyclobutyl-4-[(methylamino)methyl]-2-{6-[4-(propan-2-yl)-4H-1,2,4-triazol-3-yl]pyridin-2-yl}-2,3-dihydro-1H-pyrrolo[3,4-c]pyridin-1-one], for which, in assay [1] (HPK1 mobility shift assay), the Ki amounted to 0.53 nM. For the same compound, the IC50 in assay [2] (setting [3]) is 248 nM.

For `CCN(c1cc2c(c(CNC)n1)CN(c1cccc(-c3nncn3C(C)C)n1)C2=O)C(C)C` [Example 70, 6-[ethyl(propan-2-yl)amino]-4-[(methylamino)methyl]-2-{6-[4-(propan-2-yl)-4H-1,2,4-triazol-3-yl]pyridin-2-yl}-2,3-dihydro-1H-pyrrolo[3,4-c]pyridin-1-one], in assay [1] (HPK1 mobility shift assay), the Ki turned out to be 0.16 nM. In addition, the IC50 in assay [2] (setting [3]) was 62 nM.

Take `CCn1cnnc1-c1cccc(N2Cc3c(cc(N(C)C(C)C)nc3CNC)C2=O)n1` [Example 71, 2-[6-(4-ethyl-4H-1,2,4-triazol-3-yl)pyridin-2-yl]-4-[(methylamino)methyl]-6-[methyl(propan-2-yl)amino]-2,3-dihydro-1H-pyrrolo[3,4-c]pyridin-1-one]: the Ki in assay [1] (HPK1 mobility shift assay) is 0.18 nM. In addition, the IC50 in assay [2] (setting [3]) came to 40 nM.

For the compound `CNCc1nc(N(C)C(C)C)cc2c1CN(c1cccc(N3C(=O)OC[C@@H]3C)n1)C2=O` [Example 74, 4-[(methylamino)methyl]-2-{6-[(4S)-4-methyl-2-oxo-1,3-oxazolidin-3-yl]pyridin-2-yl}-6-[methyl(propan-2-yl)amino]-2,3-dihydro-1H-pyrrolo[3,4-c]pyridin-1-one], the Ki in assay [1] (HPK1 mobility shift assay) came out at 0.06 nM. Also, in assay [2] (setting [3]), the IC50 came to 77 nM.

`CCN(CC)c1cc2c(c(CN)n1)CN(c1cccc(-c3nncn3CC)n1)C2=O` [Example 75, 4-(aminomethyl)-6-(diethylamino)-2-[6-(4-ethyl-4H-1,2,4-triazol-3-yl)pyridin-2-yl]-2,3-dihydro-1H-pyrrolo[3,4-c]pyridin-1-one]: the Ki in assay [1] (HPK1 mobility shift assay) was found to be 0.52 nM. For the same compound, the IC50 in assay [2] (setting [3]) turned out to be 118 nM.

Consider `CCNc1cc2c(c(CNC)n1)CN(c1cccc(-c3nncn3CC)n1)C2=O` [Example 76, 6-(ethylamino)-2-[6-(4-ethyl-4H-1,2,4-triazol-3-yl)pyridin-2-yl]-4-[(methylamino)methyl]-2,3-dihydro-1H-pyrrolo[3,4-c]pyridin-1-one], for which the Ki in assay [1] (HPK1 mobility shift assay) worked out at 0.64 nM. In addition, the IC50 in assay [2] (setting [3]) was determined as 583 nM.

In the case of `CNCc1nc(NC(C)C)cc2c1CN(c1cccc(-c3nncn3C(C)C)n1)C2=O` [Example 78, 4-[(methylamino)methyl]-6-(propan-2-ylamino)-2-{6-[4-(propan-2-yl)-4H-1,2,4-triazol-3-yl]pyridin-2-yl}-2,3-dihydro-1H-pyrrolo[3,4-c]pyridin-1-one], in assay [1] (HPK1 mobility shift assay), the Ki turned out to be 0.73 nM. Besides, in assay [2] (setting [3]), the IC50 was 307 nM.

Take `CC(C)N(C)c1cc2c(c(CN)n1)CN(c1cccc(-c3nncn3C(C)C)n1)C2=O` [Example 79, 4-(aminomethyl)-6-[methyl(propan-2-yl)amino]-2-{6-[4-(propan-2-yl)-4H-1,2,4-triazol-3-yl]pyridin-2-yl}-2,3-dihydro-1H-pyrrolo[3,4-c]pyridin-1-one]: in assay [1] (HPK1 mobility shift assay), the Ki is under 0.05 nM. Also, the IC50 in assay [2] (setting [3]) came to 48 nM.

On to `CCCn1cnnc1-c1cccc(N2Cc3c(cc(N(CC)CC)nc3CNC)C2=O)n1` [Example 80, 6-(diethylamino)-4-[(methylamino)methyl]-2-[6-(4-propyl-4H-1,2,4-triazol-3-yl)pyridin-2-yl]-2,3-dihydro-1H-pyrrolo[3,4-c]pyridin-1-one], for which, in assay [1] (HPK1 mobility shift assay), the Ki was 0.16 nM. Moreover, the IC50 in assay [2] (setting [3]) came to 184 nM.

`CNCc1nc(N(C)C(C)C)cc2c1CN(c1cccc(-c3nncn3C)n1)C2=O` [Example 81, 4-[(methylamino)methyl]-6-[methyl(propan-2-yl)amino]-2-[6-(4-methyl-4H-1,2,4-triazol-3-yl)pyridin-2-yl]-2,3-dihydro-1H-pyrrolo[3,4-c]pyridin-1-one]: the Ki in assay [1] (HPK1 mobility shift assay) is 0.58 nM. Further, in assay [2] (setting [3]), the IC50 came out at 406 nM.

As for `CCCn1cnnc1-c1cccc(N2Cc3c(cc(N(C)C(C)C)nc3CN)C2=O)n1` [Example 82, 4-(aminomethyl)-6-[methyl(propan-2-yl)amino]-2-[6-(4-propyl-4H-1,2,4-triazol-3-yl)pyridin-2-yl]-2,3-dihydro-1H-pyrrolo[3,4-c]pyridin-1-one], in assay [1] (HPK1 mobility shift assay), the Ki is 0.12 nM. Besides, in assay [2] (setting [3]), the IC50 was found to be 95 nM.

Consider `CNCc1nc(C2(C)CC2)cc2c1CN(c1ccc(F)c(-c3nncn3C(C)C)n1)C2=O` [Example 83, 2-{5-fluoro-6-[4-(propan-2-yl)-4H-1,2,4-triazol-3-yl]pyridin-2-yl}-4-[(methylamino)methyl]-6-(1-methylcyclopropyl)-2,3-dihydro-1H-pyrrolo[3,4-c]pyridin-1-one], for which, in assay [1] (HPK1 mobility shift assay), the Ki was found to be 35.2 nM. The IC50 in assay [2] (setting [3]) was found to be 6640 nM.

For `CCN(c1cc2c(c(CNC)n1)CN(c1cccc(-c3nncn3CC)n1)C2=O)C(C)C` [Example 84, 6-[ethyl(propan-2-yl)amino]-2-[6-(4-ethyl-4H-1,2,4-triazol-3-yl)pyridin-2-yl]-4-[(methylamino)methyl]-2,3-dihydro-1H-pyrrolo[3,4-c]pyridin-1-one], in assay [1] (HPK1 mobility shift assay), the Ki came to 0.14 nM. Moreover, the IC50 in assay [2] (setting [3]) is 138 nM.

In the case of `CC1(c2cc3c(c(CN)n2)CN(c2cccc(N4C(=O)OC[C@@H]4CF)n2)C3=O)CC1` [Example 85, 4-(aminomethyl)-2-{6-[(4R)-4-(fluoromethyl)-2-oxo-1,3-oxazolidin-3-yl]pyridin-2-yl}-6-(1-methylcyclopropyl)-2,3-dihydro-1H-pyrrolo[3,4-c]pyridin-1-one], in assay [1] (HPK1 mobility shift assay), the Ki came to 1.11 nM. The IC50 in assay [2] (setting [3]) came to 345 nM.

Turning to `NCc1nc(C2CC2)cc2c1CN(c1cccc(N3C(=O)OC[C@@H]3CF)n1)C2=O` [Example 86, 4-(aminomethyl)-6-cyclopropyl-2-{6-[(4R)-4-(fluoromethyl)-2-oxo-1,3-oxazolidin-3-yl]pyridin-2-yl}-2,3-dihydro-1H-pyrrolo[3,4-c]pyridin-1-one], in assay [1] (HPK1 mobility shift assay), the Ki was determined as 3.04 nM. Moreover, the IC50 in assay [2] (setting [3]) was determined as 652 nM.

On to `CNCc1nc(C2CC2)cc2c1CN(c1cccc(N3C(=O)OC[C@@H]3CF)n1)C2=O` [Example 87, 6-cyclopropyl-2-{6-[(4R)-4-(fluoromethyl)-2-oxo-1,3-oxazolidin-3-yl]pyridin-2-yl}-4-[(methylamino)methyl]-2,3-dihydro-1H-pyrrolo[3,4-c]pyridin-1-one], for which the Ki in assay [1] (HPK1 mobility shift assay) came to 1.44 nM. Besides, the IC50 in assay [2] (setting [3]) came to 299 nM.

Turning to `CCN(CC)c1cc2c(c(CN(C)C)n1)CN(c1cccc(-c3nncn3CC)n1)C2=O` [Example 88, 6-(diethylamino)-4-[(dimethylamino)methyl]-2-[6-(4-ethyl-4H-1,2,4-triazol-3-yl)pyridin-2-yl]-2,3-dihydro-1H-pyrrolo[3,4-c]pyridin-1-one], the Ki in assay [1] (HPK1 mobility shift assay) came to 2.52 nM. Further, in assay [2] (setting [3]), the IC50 came to 2680 nM.
